Data taken from patent US20230150974A1 (Foghorn Therapeutics Inc., priority 2020, published 2023).

What was measured:
HiBiT-BRM = target: T1, HiBiT-BRM (Homo sapiens, UniProt P51531); assay: HiBiT-BRM cell-based degradation assay (Nano-Glo HiBiT Lytic Detection); conditions: HeLa cells expressing HiBiT-BRM, 24 h; for DC50: read-out: BRM HiBit Degradation IC50
T1 construct: expressed in transfected cells
Protocol: (§1) Procedure: A stable HeLa cell line expressing HiBiT-BRM was generated. On day 0, 5000 cells were seeded in 40 μL of media into each well of 384-well cell culture plates. […] Subsequently plates were incubated for 24 h in a standard tissue culture incubator and equilibrated at room temperature for 15 minutes. Nano-Glo HiBiT Lytic Detection System (Promega N3050) reagent was freshly prepared and 20 ul was added to each well. Upon addition of this LgBit-containing reagent, the HiBiT and LgBiT proteins associate to form the luminescent NanoBiT luciferase. The plates were shaken for 10 minutes at room temperature and the bioluminescence read using an EnVision plate reader (PerkinElmer).
(§2) The degradation % was calculated using the following formula: % degradation=100%−100%×(LumSample−LumLC)/(LumHC−LumLC). DMSO treated cells are employed as High Control (HC) and 2 μM of a known BRM/BRG1 degrader standard treated cells are employed as Low Control (LC).

HiBit-BRG1 = target: T2, HiBit-BRG1 (Homo sapiens, UniProt P51532); assay: HiBit-BRG1 cell-based degradation assay (Nano-Glo HiBiT Lytic Detection); conditions: HeLa cells expressing HiBit-BRG1 and LgBit, 24 h; for DC50: read-out: BRG1 HiBit Degradation IC50; for Dmax: read-out: BRG1 HiBit Degradation Maximum (%)
T2 construct: expressed in transfected cells
T2 sequence (P51532 whole entry): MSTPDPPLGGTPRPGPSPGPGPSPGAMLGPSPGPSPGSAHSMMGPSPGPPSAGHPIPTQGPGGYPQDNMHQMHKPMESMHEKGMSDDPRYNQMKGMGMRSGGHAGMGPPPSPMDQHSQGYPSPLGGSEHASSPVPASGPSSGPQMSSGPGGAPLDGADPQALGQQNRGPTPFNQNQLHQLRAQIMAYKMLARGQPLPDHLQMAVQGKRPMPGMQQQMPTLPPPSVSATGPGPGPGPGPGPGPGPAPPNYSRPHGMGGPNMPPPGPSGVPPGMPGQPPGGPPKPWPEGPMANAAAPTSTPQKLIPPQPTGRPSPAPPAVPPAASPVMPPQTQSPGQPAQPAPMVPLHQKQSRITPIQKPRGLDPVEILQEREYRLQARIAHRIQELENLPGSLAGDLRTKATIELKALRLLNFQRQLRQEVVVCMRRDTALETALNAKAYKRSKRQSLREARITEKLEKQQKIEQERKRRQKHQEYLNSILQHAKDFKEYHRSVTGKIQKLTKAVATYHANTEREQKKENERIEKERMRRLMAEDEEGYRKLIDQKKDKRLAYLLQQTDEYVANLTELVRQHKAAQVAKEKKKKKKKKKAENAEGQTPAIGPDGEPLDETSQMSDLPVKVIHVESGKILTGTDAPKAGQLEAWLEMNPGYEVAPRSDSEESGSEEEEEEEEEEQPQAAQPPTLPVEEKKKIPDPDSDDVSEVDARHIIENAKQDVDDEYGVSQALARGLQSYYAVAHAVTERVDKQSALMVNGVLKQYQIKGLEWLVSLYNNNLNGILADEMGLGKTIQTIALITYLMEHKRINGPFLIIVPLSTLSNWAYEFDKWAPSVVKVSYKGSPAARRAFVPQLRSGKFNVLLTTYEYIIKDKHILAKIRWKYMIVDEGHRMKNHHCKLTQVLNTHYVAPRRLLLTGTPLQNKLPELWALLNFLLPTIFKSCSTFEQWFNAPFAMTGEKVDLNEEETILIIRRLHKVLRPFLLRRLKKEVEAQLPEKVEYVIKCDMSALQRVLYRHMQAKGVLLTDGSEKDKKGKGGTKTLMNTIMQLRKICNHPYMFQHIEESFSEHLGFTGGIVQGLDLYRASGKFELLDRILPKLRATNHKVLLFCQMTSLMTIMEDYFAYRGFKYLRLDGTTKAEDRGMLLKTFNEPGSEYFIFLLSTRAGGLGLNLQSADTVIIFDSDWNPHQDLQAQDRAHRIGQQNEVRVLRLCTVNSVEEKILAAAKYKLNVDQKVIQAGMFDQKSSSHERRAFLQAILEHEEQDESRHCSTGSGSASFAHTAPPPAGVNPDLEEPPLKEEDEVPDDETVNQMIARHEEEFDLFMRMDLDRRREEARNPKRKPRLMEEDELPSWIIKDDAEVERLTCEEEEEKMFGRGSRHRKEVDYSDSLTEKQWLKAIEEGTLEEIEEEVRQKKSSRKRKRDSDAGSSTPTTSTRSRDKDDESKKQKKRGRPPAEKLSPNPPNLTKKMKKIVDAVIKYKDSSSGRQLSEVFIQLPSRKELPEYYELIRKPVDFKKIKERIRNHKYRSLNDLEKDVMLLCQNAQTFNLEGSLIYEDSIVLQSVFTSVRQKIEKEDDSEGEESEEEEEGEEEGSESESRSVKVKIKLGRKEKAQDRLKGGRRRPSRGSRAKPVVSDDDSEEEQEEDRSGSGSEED
Protocol: as §1
For measurement of BRG1 degradation, a stable HeLa cell line expressing HiBit-BRG1 and LgBit was generated. The same protocol as above was then followed.
as §2

T1 sequence (P51531 whole entry): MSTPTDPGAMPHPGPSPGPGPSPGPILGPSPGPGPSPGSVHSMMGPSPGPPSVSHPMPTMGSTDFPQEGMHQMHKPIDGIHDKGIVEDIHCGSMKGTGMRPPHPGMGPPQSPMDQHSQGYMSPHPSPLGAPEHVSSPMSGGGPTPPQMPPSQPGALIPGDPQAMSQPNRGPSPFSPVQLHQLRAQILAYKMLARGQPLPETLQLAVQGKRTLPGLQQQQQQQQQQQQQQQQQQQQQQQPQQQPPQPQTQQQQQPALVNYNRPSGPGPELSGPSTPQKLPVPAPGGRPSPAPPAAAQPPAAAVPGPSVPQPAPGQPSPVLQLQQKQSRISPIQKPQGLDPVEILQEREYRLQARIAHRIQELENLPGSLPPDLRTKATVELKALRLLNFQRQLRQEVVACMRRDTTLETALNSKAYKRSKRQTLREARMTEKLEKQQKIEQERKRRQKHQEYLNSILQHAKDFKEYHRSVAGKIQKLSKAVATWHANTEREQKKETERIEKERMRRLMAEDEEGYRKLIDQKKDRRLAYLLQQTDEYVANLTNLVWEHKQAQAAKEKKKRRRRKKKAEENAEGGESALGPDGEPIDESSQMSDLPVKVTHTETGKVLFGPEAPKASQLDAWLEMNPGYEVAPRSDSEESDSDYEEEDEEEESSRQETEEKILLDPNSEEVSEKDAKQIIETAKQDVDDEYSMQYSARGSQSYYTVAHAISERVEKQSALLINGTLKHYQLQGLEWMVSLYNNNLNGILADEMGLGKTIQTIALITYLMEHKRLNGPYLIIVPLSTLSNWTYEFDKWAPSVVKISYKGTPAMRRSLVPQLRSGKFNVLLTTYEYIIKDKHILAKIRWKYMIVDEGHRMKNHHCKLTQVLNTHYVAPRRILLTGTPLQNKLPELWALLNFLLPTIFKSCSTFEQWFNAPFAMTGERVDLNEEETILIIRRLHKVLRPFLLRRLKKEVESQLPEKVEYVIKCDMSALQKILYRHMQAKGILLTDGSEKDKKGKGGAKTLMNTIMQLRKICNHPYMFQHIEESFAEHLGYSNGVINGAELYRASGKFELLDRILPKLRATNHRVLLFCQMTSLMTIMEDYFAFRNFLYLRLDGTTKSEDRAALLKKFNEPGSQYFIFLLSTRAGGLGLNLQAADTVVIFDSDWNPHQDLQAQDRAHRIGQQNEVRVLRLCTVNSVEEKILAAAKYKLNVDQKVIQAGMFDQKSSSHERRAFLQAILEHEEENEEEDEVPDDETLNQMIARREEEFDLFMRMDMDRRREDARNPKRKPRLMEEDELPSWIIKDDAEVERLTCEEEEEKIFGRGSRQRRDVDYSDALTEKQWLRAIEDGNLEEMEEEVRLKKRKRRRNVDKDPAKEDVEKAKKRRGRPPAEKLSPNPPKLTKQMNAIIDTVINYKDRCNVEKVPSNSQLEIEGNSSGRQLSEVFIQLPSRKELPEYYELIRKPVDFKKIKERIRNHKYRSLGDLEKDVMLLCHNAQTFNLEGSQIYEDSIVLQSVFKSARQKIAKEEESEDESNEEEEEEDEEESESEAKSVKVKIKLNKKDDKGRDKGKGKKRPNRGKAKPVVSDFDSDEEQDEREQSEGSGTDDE

SMILES	DC50 (HiBiT-BRM) [nM]	DC50 (HiBit-BRG1) [nM]	Dmax (HiBit-BRG1) [%]	BRM HiBit Degradation Maximum (%) (HiBiT-BRM)
Cc1ncsc1-c1ccc(CNC(=O)[C@@H]2C[C@@H](O)CN2C(=O)[C@@H](NC(=O)CCCOCCOCCNC(=O)c2ccc(CCOc3cc(-c4ccccc4O)nnc3N)cc2)C(C)(C)C)cc1 [Compound 24, (2S,4R)-1-[(2S)-2-[4-[2-(2-[[4-(2-[[3-amino-6-(2-hydroxyphenyl)pyridazin-4-yl]oxy]ethyl)phenyl]formamido]ethoxy)ethoxy]butanamido]-3,3-dimethylbutanoyl]-4-hydroxy-N-[[4-(4-methyl-1,3-thiazol-5-yl)phenyl]methyl]pyrrolidine-2-carboxamide]	> 1000	> 1000	< 50	C (“C” indicates maximum degradation <50%)
Nc1nnc(-c2ccccc2O)cc1OCCc1ccc(C(=O)NCCCCCCCC(=O)NCc2ccc(S(=O)(=O)Nc3cccc4c(Cl)c[nH]c34)cc2)cc1 [Compound 25, 8-[[4-(2-[[3-amino-6-(2-hydroxyphenyl)pyridazin-4-yl]oxy]ethyl)phenyl]formamido]-N-([4-[(3-chloro-1H-indol-7-yl)sulfamoyl]phenyl]methyl)octanamide]	> 1000	> 1000	< 50	C (“C” indicates maximum degradation <50%)
Cc1ncsc1-c1ccc(CNC(=O)[C@@H]2C[C@@H](O)CN2C(=O)[C@@H](NC(=O)CCCCC(=O)NCc2ccc(CCOc3cc(-c4ccccc4O)nnc3N)cc2)C(C)(C)C)cc1 [Compound 27, N′-[[4-(2-[[3-amino-6-(2-hydroxyphenyl)pyridazin-4-yl]oxy]ethyl)phenyl]methyl]-N-[(2S)-1-[(2S,4R)-4-hydroxy-2-([[4-(4-methyl-1,3-thiazol-5-yl)phenyl]methyl]carbamoyl)pyrrolidin-1-yl]-3,3-dimethyl-1-oxobutan-2-yl]hexanediamide]	> 1000	> 1000	< 50	A (“A” indicates maximum degradation ≥75%)
Cc1ncsc1-c1ccc(CNC(=O)[C@@H]2C[C@@H](O)CN2C(=O)[C@@H](NC(=O)CCC(=O)NCc2ccc(CCOc3cc(-c4ccccc4O)nnc3N)cc2)C(C)(C)C)cc1 [Compound 29, N′-[[4-(2-[[3-amino-6-(2-hydroxyphenyl)pyridazin-4-yl]oxy]ethyl)phenyl]methyl]-N-[(2S)-1-[(2S,4R)-4-hydroxy-2-([[4-(4-methyl-1,3-thiazol-5-yl)phenyl]methyl]carbamoyl)pyrrolidin-1-yl]-3,3-dimethyl-1-oxobutan-2-yl]succinamide]	> 1000	> 1000	< 50	B (“B” indicates maximum degradation ≥50%)
Cc1ncsc1-c1ccc(CNC(=O)[C@@H]2C[C@@H](O)CN2C(=O)[C@@H](NC(=O)CCCCCCCC(=O)NCc2ccc(CCOc3cc(-c4ccccc4O)nnc3N)cc2)C(C)(C)C)cc1 [Compound 33]	> 100	> 100	> 50	A (“A” indicates maximum degradation ≥75%)
Cc1ncsc1-c1ccc(CNC(=O)[C@@H]2C[C@@H](O)CN2C(=O)[C@@H](NC(=O)CCCC(=O)NCc2ccc(CCOc3cc(-c4ccccc4O)nnc3N)cc2)C(C)(C)C)cc1 [Compound 34]	> 1000	> 1000	< 50	B (“B” indicates maximum degradation ≥50%)
Cc1ncsc1-c1ccc(CNC(=O)[C@@H]2C[C@@H](O)CN2C(=O)[C@@H](NC(=O)CCCCCCCCCCC(=O)NCc2ccc(CCOc3cc(-c4ccccc4O)nnc3N)cc2)C(C)(C)C)cc1 [Compound 37]	> 100	> 1000	< 50	B (“B” indicates maximum degradation ≥50%)
Cc1ncsc1-c1ccc(CNC(=O)[C@@H]2C[C@@H](O)CN2C(=O)[C@@H](NC(=O)COCCOCCOCC(=O)NCc2ccc(CCOc3cc(-c4ccccc4O)nnc3N)cc2)C(C)(C)C)cc1 [Compound 38, (2S,4R)-1-[(2S)-2-[2-(2-[2-[([[4-(2-[[3-amino-6-(2-hydroxyphenyl)pyridazin-4-yl]oxy]ethyl)phenyl]methyl]carbamoyl)methoxy]ethoxy]ethoxy)acetamido]-3,3-dimethylbutanoyl]-4-hydroxy-N-[[4-(4-methyl-1,3-thiazol-5-yl)phenyl]methyl]pyrrolidine-2-carboxamide]	> 1000	> 1000	< 50	B (“B” indicates maximum degradation ≥50%)
Cc1ncsc1-c1ccc(CNC(=O)[C@@H]2C[C@@H](O)CN2C(=O)[C@@H](NC(=O)COCCOCCOCCOCC(=O)NCc2ccc(CCOc3cc(-c4ccccc4O)nnc3N)cc2)C(C)(C)C)cc1 [Compound 39]	> 1000	> 1000	< 50	C (“C” indicates maximum degradation <50%)

The next lines start with results.

DC50 (HiBiT-BRM) [nM]	DC50 (HiBit-BRG1) [nM]	Dmax (HiBit-BRG1) [%]	SMILES	BRM HiBit Degradation Maximum (%) (HiBiT-BRM)
> 100	> 1000	< 50	Cc1ncsc1-c1ccc(CNC(=O)[C@@H]2C[C@@H](O)CN2C(=O)[C@@H](NC(=O)CCCCCCCCCNCc2ccc(CCOc3cc(-c4ccccc4O)nnc3N)cc2)C(C)(C)C)cc1 [Compound 26, (2S,4R)-1-((S)-2-(10-((4-(2-((3-amino-6-(2-hydroxyphenyl)pyridazin-4-yl)oxy)ethyl)benzyl)amino)decanamido)-3,3-dimethylbutanoyl)-4-hydroxy-N-(4-(4-methylthiazol-5-yl)benzyl)pyrrolidine-2-carboxamide]	A (“A” indicates maximum degradation ≥75%)
> 100	> 1000	< 50	Cc1ncsc1-c1ccc(CNC(=O)[C@@H]2C[C@@H](O)CN2C(=O)[C@@H](NC(=O)CCCCCCCCCC(=O)NCc2ccc(CCOc3cc(-c4ccccc4O)nnc3N)cc2)C(C)(C)C)cc1 [Compound 28, N′-[[4-(2-[[3-amino-6-(2-hydroxyphenyl)pyridazin-4-yl]oxy]ethyl)phenyl]methyl]-N-[(2S)-1-[(2S,4R)-4-hydroxy-2-([[4-(4-methyl-1,3-thiazol-5-yl)phenyl]methyl]carbamoyl)pyrrolidin-1-yl]-3,3-dimethyl-1-oxobutan-2-yl]undecanediamide]	A (“A” indicates maximum degradation ≥75%)
> 100	> 1000	< 50	Cc1ncsc1-c1ccc(CNC(=O)[C@@H]2C[C@@H](O)CN2C(=O)[C@@H](NC(=O)CCCCCCC(=O)NCc2ccc(CCOc3cc(-c4ccccc4O)nnc3N)cc2)C(C)(C)C)cc1 [Compound 30]	A (“A” indicates maximum degradation ≥75%)
> 10	> 1000	< 50	Cc1ncsc1-c1ccc(CNC(=O)[C@@H]2C[C@@H](O)CN2C(=O)[C@@H](NC(=O)CCCCCCCCCCCC(=O)NCc2ccc(CCOc3cc(-c4ccccc4O)nnc3N)cc2)C(C)(C)C)cc1 [Compound 31, N1-(4-(2-((3-amino-6-(2-hydroxyphenyl)pyridazin-4-yl)oxy)ethyl)benzyl)-N13-((S)-1-((2S,4R)-4-hydroxy-2-((4-(4-methylthiazol-5-yl)benzyl)carbamoyl)pyrrolidin-1-yl)-3,3-dimethyl-1-oxobutan-2-yl)tridecanediamide]	B (“B” indicates maximum degradation ≥50%)
> 10	> 1000	< 50	Cc1ncsc1-c1ccc(CNC(=O)[C@@H]2C[C@@H](O)CN2C(=O)[C@@H](NC(=O)CCCCCCCCCCCCCCCC(=O)NCc2ccc(CCOc3cc(-c4ccccc4O)nnc3N)cc2)C(C)(C)C)cc1 [Compound 32, N1-(4-(2-((3-amino-6-(2-hydroxyphenyl)pyridazin-4-yl)oxy)ethyl)benzyl)-N17-((S)-1-((2S,4R)-4-hydroxy-2-((4-(4-methylthiazol-5-yl)benzyl)carbamoyl)pyrrolidin-1-yl)-3,3-dimethyl-1-oxobutan-2-yl)heptadecanediamide]	A (“A” indicates maximum degradation ≥75%)
> 10	> 1000	< 50	Cc1ncsc1-c1ccc(CNC(=O)[C@@H]2C[C@@H](O)CN2C(=O)[C@@H](NC(=O)CCCCCCCCCCCCCC(=O)NCc2ccc(CCOc3cc(-c4ccccc4O)nnc3N)cc2)C(C)(C)C)cc1 [Compound 35, N1-(4-(2-((3-amino-6-(2-hydroxyphenyl)pyridazin-4-yl)oxy)ethyl)benzyl)-N15-((S)-1-((2S,4R)-4-hydroxy-2-((4-(4-methylthiazol-5-yl)benzyl)carbamoyl)pyrrolidin-1-yl)-3,3-dimethyl-1-oxobutan-2-yl)pentadecanediamide]	A (“A” indicates maximum degradation ≥75%)
> 10	> 1000	< 50	Cc1ncsc1-c1ccc(CNC(=O)[C@@H]2C[C@@H](O)CN2C(=O)[C@@H](NC(=O)CCCCCCCCCCCCC(=O)NCc2ccc(CCOc3cc(-c4ccccc4O)nnc3N)cc2)C(C)(C)C)cc1 [Compound 36]	B (“B” indicates maximum degradation ≥50%)
